Test results reported in the Kinase Knowledgebase extract (Sharma et al. 2016).
pIC50: −log10 of the molar value.

Biological target: CDK2 (human) (UniProt P24941)
Assay: Enzyme Assay

Row | SMILES | pIC50
1 | CCCCNc1nccc(-c2c[nH]nc2C)n1 | > 5.00
2 | CC(C)c1[nH]ncc1-c1ccnc(NCC2CCCO2)c1 (stereo not drawn) | > 5.00
3 | CC(=O)NCCNc1nccc(-c2c[nH]nc2C)n1 | > 4.82
4 | Cc1n[nH]cc1-c1ccnc(NCc2cccnc2)n1 | > 5.00
5 | Cc1n[nH]cc1-c1ccnc(NCC2CC2)n1 | > 5.00
6 | Cc1n[nH]cc1-c1ccnc(NCc2ccc3c(c2)OCO3)n1 | > 5.00
7 | Cc1n[nH]cc1-c1ccnc(NC2CC2)n1 | > 5.00
8 | Cc1n[nH]cc1-c1ccnc(NCCOc2ccccc2)n1 | > 4.82
9 | Cc1n[nH]cc1-c1ccnc(NCCc2ccccc2)n1 | > 5.00
10 | Cc1n[nH]cc1-c1ccnc(NCc2cccc(C(F)(F)F)c2)n1 | > 5.00
11 | Cc1nnc(C(C)Nc2nccc(-c3c[nH]nc3C(C)C)n2)[nH]1 (stereo not drawn) | > 4.82
12 | Cc1n[nH]cc1-c1ccnc(NCCc2cccnc2)n1 | > 5.00
13 | CC(C)c1n[nH]cc1-c1ccnc(N[C@@H](C)c2ccccc2)n1 | > 5.00
14 | Cc1n[nH]cc1-c1ccnc(NCCc2c[nH]c3ccccc23)n1 | > 5.00
15 | Cc1cc(C)n(CCNc2nccc(-c3c[nH]nc3C(C)C)n2)n1 | > 4.82
16 | Cc1ccccc1CNc1nccc(-c2c[nH]nc2C)n1 | > 5.00
17 | Cc1n[nH]cc1-c1ccnc(NCC2CCCCCC2)n1 | > 4.82
18 | CC(C)c1[nH]ncc1-c1ccnc(NC2CCN(Cc3ccccc3)CC2)c1 | > 4.82
19 | CN1CCC(Nc2cc(-c3cn[nH]c3C(C)(C)C)ccn2)CC1 | > 4.82
20 | CC(C)c1n[nH]c(Br)c1-c1ccnc(NC2CCN(C)CC2)n1 | > 5.30

Row | SMILES | pIC50
21 | CC(C)c1[nH]ncc1-c1ccnc(NCCOc2ccccc2)c1 | > 5.00
22 | CCC(C)c1[nH]ncc1-c1ccnc(NC2CCc3ccccc32)c1 (stereo not drawn) | > 5.30
23 | CCCNc1cc(-c2cn[nH]c2C(C)C)ccn1 | > 5.30
24 | CC(C)c1n[nH]cc1-c1nc(NC2CCN(C)CC2)ncc1Br | > 5.30
25 | Cc1n[nH]cc1-c1ccnc(NCc2ccncc2)n1 | > 4.82
26 | Cc1n[nH]cc1-c1ccnc(NCC2CCCCC2)n1 | > 5.00
27 | CCC(CC)c1[nH]ncc1-c1ccnc(NCc2ccccc2C)c1 | > 5.30
28 | CC(C)c1n[nH]cc1-c1ccnc(NCc2c(F)cccc2F)n1 | > 5.30
29 | CCC(Nc1nccc(-c2c[nH]nc2C(C)C)n1)c1ccccc1 (stereo not drawn) | > 5.30
30 | CCC(CC)c1[nH]ncc1-c1ccnc(NC2CCc3ccccc32)c1 (stereo not drawn) | > 5.30
31 | CC(C)c1[nH]ncc1-c1ccnc(NCc2ccc(F)cc2)c1 | > 5.30
32 | Cc1n[nH]cc1-c1ccnc(NC2CCCCC2)n1 | > 5.30
33 | Cc1ccccc1CNc1cc(-c2cn[nH]c2C2CCCC2)ccn1 | > 5.30
34 | CC(C)c1n[nH]cc1-c1ccnc(NCc2ccc(N(C)C)cc2)n1 | > 5.30
35 | Cc1ccccc1CNc1cc(-c2cn[nH]c2C2CCCCCC2)ccn1 | > 5.00
36 | CC(C)c1[nH]ncc1-c1ccnc(NCCc2cccnc2)c1 | > 5.30
37 | CC(C)c1[nH]ncc1-c1ccnc(NCC2CC2)c1 | > 5.30
38 | CC(C)c1n[nH]cc1-c1ccnc(NC2CN3CCC2CC3)n1 (stereo not drawn) | > 5.30
39 | CC(C)c1[nH]ncc1-c1ccnc(NCc2cc(F)cc(F)c2)c1 | > 5.30

Continued, values first:

Row | pIC50 | SMILES
40 | > 5.30 | c1cncc(CCNc2cc(-c3cn[nH]c3C3CCCC3)ccn2)c1
41 | > 5.30 | CC(C)c1n[nH]cc1-c1ccnc(NC(C)c2ccccc2)n1 (stereo not drawn)
42 | > 6.00 | CC(C)c1[nH]ncc1-c1ccnc(NC2CC2)c1
43 | > 5.30 | CC(C)COCCCNc1nccc(-c2c[nH]nc2C(C)C)n1
44 | > 5.30 | CC(C)c1n[nH]cc1-c1ccnc(N[C@@H]2CCc3ccccc32)n1
45 | > 6.00 | CC(C)c1n[nH]cc1-c1ccnc(NC2CCCc3ccccc32)n1 (stereo not drawn)
46 | > 6.30 | c1cc(-c2cn[nH]c2C2CCCC2)cc(NC2CCCC2)n1
47 | > 5.30 | COc1ccc(CNc2cc(-c3cn[nH]c3C(C)C)ccn2)cc1
48 | > 5.30 | Cc1ccc(CNc2cc(-c3cn[nH]c3C3CCCC3)ccn2)cc1
49 | > 5.30 | CCC(C)Nc1nccc(-c2c[nH]nc2C)n1 (stereo not drawn)
50 | > 6.00 | CC(C)c1n[nH]cc1-c1ccnc(NC2CCN(C)CC2)n1
51 | > 5.30 | CC(C)c1[nH]ncc1-c1ccnc(NCc2ccncc2)c1
52 | > 6.30 | CC(C)c1[nH]ncc1-c1ccnc(NC2CCCCC2)c1
53 | > 5.30 | CC(C)c1[nH]ncc1-c1ccnc(NCc2cccc(C(F)(F)F)c2)c1
54 | > 5.30 | c1ccc(CCNc2cc(-c3cn[nH]c3C3CCCC3)ccn2)cc1
55 | > 5.30 | CC(CCc1ccccc1)Nc1nccc(-c2c[nH]nc2C(C)C)n1 (stereo not drawn)
56 | > 5.30 | CC(C)c1n[nH]cc1-c1ccnc(NCc2ccccc2C(F)(F)F)n1
57 | > 6.00 | CC(C)c1[nH]ncc1-c1ccnc(NCCc2ccccc2)c1
58 | > 5.30 | CC(CCCC(C)(C)O)Nc1nccc(-c2c[nH]nc2C(C)C)n1 (stereo not drawn)
59 | > 6.30 | CC(C)c1n[nH]cc1-c1ccnc(NC2CCN(c3ccccc3)CC2)n1
60 | > 6.30 | CC(C)c1n[nH]cc1-c1ccnc(N[C@H]2CCc3ccccc32)n1
61 | > 6.30 | CC(C)c1n[nH]cc1-c1ccnc(NC2CCc3cc(F)ccc32)n1 (stereo not drawn)
62 | > 5.30 | FC(F)(F)c1ccccc1CNc1cc(-c2cn[nH]c2C2CCCC2)ccn1
63 | > 5.30 | Cc1cccc(CNc2cc(-c3cn[nH]c3C(C)C)ccn2)c1
64 | > 5.30 | CC(C)c1n[nH]cc1-c1ccnc(NCCCN(C)c2ccccc2)n1
65 | > 6.00 | c1ccc2c(c1)CC(Nc1cc(-c3cn[nH]c3C3CC3)ccn1)C2
66 | > 5.30 | CCCCNc1cc(-c2cn[nH]c2C(C)C)ccn1

Row | pIC50 | SMILES
67 | > 5.30 | Cc1n[nH]cc1-c1ccnc(NC2CCC2)n1
68 | > 5.30 | c1ccc2c(c1)CCC2Nc1cc(-c2cn[nH]c2C2CC2)ccn1 (stereo not drawn)
69 | > 5.30 | Cc1n[nH]cc1-c1ccnc(NC2CCCC2)n1
70 | > 5.30 | CC(C)c1[nH]ncc1-c1ccnc(NCCc2ccccn2)c1
71 | > 7.00 | CC(C)CNc1nccc(-c2c[nH]nc2C(C)C)n1
72 | > 5.30 | Cc1n[nH]cc1-c1ccnc(NCC(C)C)n1
73 | > 5.30 | CCC(CC)c1[nH]ncc1-c1ccnc(NC2CCN(C(=O)OC(C)(C)C)CC2)c1
74 | > 5.30 | Cc1n[nH]cc1-c1ccnc(NCc2cc(F)cc(F)c2)n1
75 | > 6.00 | CC(C)c1[nH]ncc1-c1ccnc(NCCCn2ccnc2)c1
76 | > 6.00 | CC(C)c1n[nH]cc1-c1ccnc(NC2CCCCC2C)n1 (stereo not drawn)
77 | > 7.30 | CC(C)c1[nH]ncc1-c1ccnc(Nc2ccccc2)c1
78 | > 5.30 | CC(C)c1[nH]ncc1-c1ccnc(NC(C)c2ccccc2)c1 (stereo not drawn)
79 | > 6.00 | COCC(C)Nc1nccc(-c2c[nH]nc2C(C)C)n1 (stereo not drawn)
80 | > 6.00 | Cc1ccccc1CNc1nccc(-c2c[nH]nc2C(C)C)n1
81 | > 6.00 | c1ccc2c(c1)CC(Nc1cc(-c3cn[nH]c3C3CCCCCC3)ccn1)C2
82 | > 5.30 | Cc1ccccc1CNc1cc(-c2cn[nH]c2C(C)C)ccn1
83 | > 6.00 | CC(C)CNc1cc(-c2cn[nH]c2C2CCCC2)ccn1
84 | > 5.30 | Cc1cccc(CNc2cc(-c3cn[nH]c3C3CCCC3)ccn2)c1
85 | > 6.00 | CC(C)c1n[nH]cc1-c1ccnc(NC2CCc3ccccc32)n1 (stereo not drawn)
86 | > 5.30 | CC(C)c1[nH]ncc1-c1ccnc(NCc2ccc3c(c2)OCO3)c1
87 | > 5.30 | Cc1ccc(CNc2cc(-c3cn[nH]c3C(C)C)ccn2)cc1
88 | > 5.30 | Cc1nnc(CCNc2nccc(-c3c[nH]nc3C(C)C)n2)[nH]1
89 | > 6.30 | CC(C)c1[nH]ncc1-c1ccnc(NC2CCC2)c1
90 | > 6.30 | CC(C)c1n[nH]cc1-c1ccnc(NC2Cc3ccccc3C2)n1
91 | > 6.00 | CC(C)c1n[nH]cc1-c1ccnc(NC2CCN(Cc3ccccc3)CC2)n1
92 | > 6.30 | CCC(C)Nc1nccc(-c2c[nH]nc2C(C)C)n1 (stereo not drawn)
93 | > 6.30 | CC(C)c1n[nH]cc1-c1ccnc(NCc2ccccc2F)n1
